Where a SMILES comes first, the peptide text is derived from it. [ ]: non-standard residue; d: D form. Aib = CC(C)(N)C(=O)O
Biological target: human GLP-1R (Homo sapiens, UniProt P43220)
Test: Peptide-receptor mediated cAMP accumulation (LANCE Ultra cAMP) in CHO-K1 cells transfected with human GLP-1R
Assay type: cell-based
Conditions: hGLP1 pEC50 (cAMP mean (n = 3): 11 point curve starting at 1 nM, Table 3)

Chain of human GLP-1R (P43220 24-463): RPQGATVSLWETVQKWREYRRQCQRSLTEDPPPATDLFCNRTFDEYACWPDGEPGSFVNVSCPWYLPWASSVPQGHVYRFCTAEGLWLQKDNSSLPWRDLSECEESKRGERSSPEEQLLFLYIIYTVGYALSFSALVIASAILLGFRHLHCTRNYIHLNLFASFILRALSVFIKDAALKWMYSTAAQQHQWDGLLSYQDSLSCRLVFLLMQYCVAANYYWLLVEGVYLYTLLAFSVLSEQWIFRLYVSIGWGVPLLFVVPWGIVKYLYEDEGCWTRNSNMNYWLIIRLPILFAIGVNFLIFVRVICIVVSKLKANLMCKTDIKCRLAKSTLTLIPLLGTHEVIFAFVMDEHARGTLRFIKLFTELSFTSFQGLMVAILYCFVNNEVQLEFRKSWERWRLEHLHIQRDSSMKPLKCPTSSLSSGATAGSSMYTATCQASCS

Structure (SMILES) | EC50
CC(C)C[C@H](NC(=O)[C@H](Cc1ccc(O)cc1)NC(=O)[C@H](CCCCN)NC(=O)[C@H](CO)NC(=O)[C@H](Cc1ccc(O)cc1)NC(=O)[C@H](CC(=O)O)NC(=O)[C@H](CO)NC(=O)[C@@H](NC(=O)[C@H](Cc1ccccc1)NC(=O)[C@@H](NC(=O)CNC(=O)[C@H](Cc1c[nH]cn1)NC(=O)[C@H](CO)NC(=O)[C@@H](N)Cc1ccc(O)cc1)[C@@H](C)O)[C@@H](C)O)C(=O)N[C@@H](CC(=O)O)C(=O)NC(C)(C)C(=O)N[C@@H](CCCCN)C(=O)N[C@@H](CCCNC(=N)N)C(=O)N[C@@H](C)C(=O)N[C@@H](CCC(N)=O)C(=O)N[C@@H](CCC(=O)O)C(=O)N[C@@H](Cc1ccccc1)C(=O)N[C@H](C(=O)NC(C)(C)C(=O)N[C@@H](Cc1c[nH]c2ccccc12)C(=O)N[C@@H](CC(C)C)C(=O)N[C@@H](CCC(=O)O)C(=O)N[C@@H](CCC(=O)O)C(=O)N[C@@H](CCC(=O)O)C(=O)N1CCC[C@H]1C(=O)N[C@@H](CO)C(=O)N[C@@H](CO)C(=O)NCC(=O)N[C@@H](C)C(=O)N1CCC[C@H]1C(=O)N1CCC[C@H]1C(=O)N1CCC[C@H]1C(=O)N[C@@H](CO)C(=O)O)C(C)C [Compound A9] (H-YSHGTFTSDYSKYLD[Aib]KRAQEFV[Aib]WLEEEPSSGAPPPS-OH; N-terminus assumed) | > 1 nM
CC(C)C[C@H](NC(=O)[C@H](Cc1ccc(O)cc1)NC(=O)[C@H](CCCCN)NC(=O)[C@H](CO)NC(=O)[C@H](Cc1ccc(O)cc1)NC(=O)[C@H](CC(=O)O)NC(=O)[C@H](CO)NC(=O)[C@@H](NC(=O)[C@H](Cc1ccccc1)NC(=O)[C@@H](NC(=O)CNC(=O)[C@H](Cc1c[nH]cn1)NC(=O)[C@H](CO)NC(=O)[C@@H](N)Cc1ccc(O)cc1)[C@@H](C)O)[C@@H](C)O)C(=O)N[C@@H](CC(=O)O)C(=O)NC(C)(C)C(=O)N[C@@H](CCCCN)C(=O)N[C@@H](CCCNC(=N)N)C(=O)N[C@@H](C)C(=O)N[C@@H](CCC(N)=O)C(=O)N[C@@H](CCC(=O)O)C(=O)N[C@@H](Cc1ccccc1)C(=O)N[C@H](C(=O)NC(C)(C)C(=O)N[C@@H](Cc1c[nH]c2ccccc12)C(=O)N[C@@H](CC(C)C)C(=O)N[C@@H](CCC(=O)O)C(=O)N[C@@H](CC(=O)O)C(=O)N[C@@H](CCC(=O)O)C(=O)NCC(=O)N[C@@H](C)C(=O)N1CCC[C@H]1C(=O)N1CCC[C@H]1C(=O)N1CCC[C@H]1C(=O)N[C@@H](CO)C(=O)O)C(C)C [Compound A12] (H-YSHGTFTSDYSKYLD[Aib]KRAQEFV[Aib]WLEDEGAPPPS-OH; N-terminus assumed) | > 1 nM
CC(C)C[C@H](NC(=O)[C@H](Cc1ccc(O)cc1)NC(=O)[C@H](CCCCN)NC(=O)[C@H](CO)NC(=O)[C@H](Cc1ccc(O)cc1)NC(=O)[C@H](CC(=O)O)NC(=O)[C@H](CO)NC(=O)[C@@H](NC(=O)[C@H](Cc1ccccc1)NC(=O)[C@@H](NC(=O)CNC(=O)[C@H](Cc1c[nH]cn1)NC(=O)[C@H](CO)NC(=O)[C@@H](N)Cc1ccc(O)cc1)[C@@H](C)O)[C@@H](C)O)C(=O)N[C@@H](CC(=O)O)C(=O)NC(C)(C)C(=O)N[C@@H](CCCCN)C(=O)N[C@@H](CCCNC(=N)N)C(=O)N[C@@H](C)C(=O)N[C@@H](CCC(N)=O)C(=O)N[C@@H](CCC(=O)O)C(=O)N[C@@H](Cc1ccccc1)C(=O)N[C@H](C(=O)NC(C)(C)C(=O)N[C@@H](Cc1c[nH]c2ccccc12)C(=O)N[C@@H](CC(C)C)C(=O)N[C@@H](CCC(=O)O)C(=O)N[C@@H](CC(=O)O)C(=O)N[C@@H](CCC(=O)O)C(=O)N[C@@H](CO)C(=O)NCC(=O)N[C@@H](C)C(=O)N1CCC[C@H]1C(=O)N1CCC[C@H]1C(=O)N1CCC[C@H]1C(=O)N[C@@H](CO)C(=O)O)C(C)C [Compound A13] (H-YSHGTFTSDYSKYLD[Aib]KRAQEFV[Aib]WLEDESGAPPPS-OH; N-terminus assumed) | > 1 nM
CC(C)C[C@H](NC(=O)[C@H](Cc1c[nH]c2ccccc12)NC(=O)[C@H](CCCCN)NC(=O)[C@H](CO)NC(=O)[C@H](Cc1ccc(O)cc1)NC(=O)[C@H](CC(=O)O)NC(=O)[C@H](CO)NC(=O)[C@@H](NC(=O)[C@H](Cc1ccccc1)NC(=O)[C@@H](NC(=O)CNC(=O)[C@H](Cc1c[nH]cn1)NC(=O)[C@H](CO)NC(=O)[C@@H](N)Cc1ccc(O)cc1)[C@@H](C)O)[C@@H](C)O)C(=O)N[C@@H](CC(=O)O)C(=O)NC(C)(C)C(=O)N[C@@H](C)C(=O)N[C@@H](CCCNC(=N)N)C(=O)N[C@@H](C)C(=O)N[C@@H](CCC(N)=O)C(=O)N[C@@H](CCC(=O)O)C(=O)N[C@@H](Cc1ccccc1)C(=O)N[C@H](C(=O)NC(C)(C)C(=O)N[C@@H](Cc1c[nH]c2ccccc12)C(=O)N[C@@H](CC(C)C)C(=O)N[C@@H](CCC(=O)O)C(=O)N[C@@H](CC(=O)O)C(=O)N[C@@H](CCC(=O)O)C(=O)N1CCC[C@H]1C(=O)N[C@@H](CO)C(=O)N[C@@H](CO)C(=O)NCC(=O)N[C@@H](C)C(=O)N1CCC[C@H]1C(=O)N1CCC[C@H]1C(=O)N1CCC[C@H]1C(=O)N[C@@H](CO)C(=O)O)C(C)C [Compound A18] (H-YSHGTFTSDYSKWLD[Aib]ARAQEFV[Aib]WLEDEPSSGAPPPS-OH; N-terminus assumed) | > 1 nM
CC(C)C[C@H](NC(=O)[C@H](Cc1ccc(O)cc1)NC(=O)[C@H](CCCCN)NC(=O)[C@H](CO)NC(=O)[C@H](Cc1ccc(O)cc1)NC(=O)[C@H](CC(=O)O)NC(=O)[C@H](CO)NC(=O)[C@@H](NC(=O)[C@H](Cc1ccccc1)NC(=O)[C@@H](NC(=O)CNC(=O)[C@H](Cc1c[nH]cn1)NC(=O)[C@H](CO)NC(=O)[C@@H](N)Cc1ccc(O)cc1)[C@@H](C)O)[C@@H](C)O)C(=O)N[C@@H](CC(=O)O)C(=O)NC(C)(C)C(=O)N[C@@H](CCCCN)C(=O)N[C@@H](CCCNC(=N)N)C(=O)N[C@@H](C)C(=O)N[C@@H](CCC(N)=O)C(=O)N[C@@H](CCC(=O)O)C(=O)N[C@@H](Cc1ccccc1)C(=O)N[C@H](C(=O)NC(C)(C)C(=O)N[C@@H](Cc1c[nH]c2ccccc12)C(=O)N[C@@H](CC(C)C)C(=O)N[C@@H](CCC(=O)O)C(=O)N[C@@H](CC(=O)O)C(=O)N[C@@H](CCC(=O)O)C(=O)N1CCC[C@H]1C(=O)N[C@@H](CO)C(=O)N[C@@H](CO)C(=O)N[C@@H](CCCCN)C(=O)NCC(=O)N[C@@H](C)C(=O)N1CCC[C@H]1C(=O)N1CCC[C@H]1C(=O)N1CCC[C@H]1C(=O)N[C@@H](CO)C(=O)O)C(C)C [Compound A24] (H-YSHGTFTSDYSKYLD[Aib]KRAQEFV[Aib]WLEDEPSSKGAPPPS-OH) | > 1 nM
CC(C)C[C@H](NC(=O)[C@H](Cc1ccc(O)cc1)NC(=O)[C@H](CCCCN)NC(=O)[C@H](CO)NC(=O)[C@H](Cc1ccc(O)cc1)NC(=O)[C@H](CC(=O)O)NC(=O)[C@H](CO)NC(=O)[C@@H](NC(=O)[C@H](Cc1ccccc1)NC(=O)[C@@H](NC(=O)CNC(=O)[C@H](Cc1c[nH]cn1)NC(=O)[C@H](CO)NC(=O)[C@@H](N)Cc1ccc(O)cc1)[C@@H](C)O)[C@@H](C)O)C(=O)N[C@@H](CC(=O)O)C(=O)NC(C)(C)C(=O)N[C@@H](CCCCN)C(=O)N[C@@H](CCCNC(=N)N)C(=O)N[C@@H](C)C(=O)N[C@@H](CCC(N)=O)C(=O)N[C@@H](CCC(=O)O)C(=O)N[C@@H](Cc1ccccc1)C(=O)N[C@H](C(=O)NC(C)(C)C(=O)N[C@@H](Cc1c[nH]c2ccccc12)C(=O)N[C@@H](CC(C)C)C(=O)N[C@@H](CCC(=O)O)C(=O)N[C@@H](CC(=O)O)C(=O)N[C@@H](CCC(=O)O)C(=O)NCC(=O)NCC(=O)N1CCC[C@H]1C(=O)N[C@@H](CO)C(=O)N[C@@H](CO)C(=O)NCC(=O)N[C@@H](C)C(=O)N1CCC[C@H]1C(=O)N1CCC[C@H]1C(=O)N1CCC[C@H]1C(=O)N[C@@H](CO)C(=O)O)C(C)C [Compound A27] (H-YSHGTFTSDYSKYLD[Aib]KRAQEFV[Aib]WLEDEGGPSSGAPPPS-OH; N-terminus assumed) | > 1 nM
CC(C)C[C@H](NC(=O)[C@H](Cc1c[nH]c2ccccc12)NC(=O)[C@H](CCCCN)NC(=O)[C@H](CO)NC(=O)[C@H](Cc1ccc(O)cc1)NC(=O)[C@H](CC(=O)O)NC(=O)[C@H](CO)NC(=O)[C@@H](NC(=O)[C@H](Cc1ccccc1)NC(=O)[C@@H](NC(=O)CNC(=O)[C@H](Cc1c[nH]cn1)NC(=O)[C@@H](NC(=O)[C@@H](N)Cc1ccc(O)cc1)[C@@H](C)O)[C@@H](C)O)[C@@H](C)O)C(=O)N[C@@H](CC(=O)O)C(=O)NC(C)(C)C(=O)N[C@@H](CCCCN)C(=O)N[C@@H](CCCNC(=N)N)C(=O)N[C@@H](C)C(=O)N[C@@H](CCC(N)=O)C(=O)N[C@@H](CCC(=O)O)C(=O)N[C@@H](Cc1ccccc1)C(=O)N[C@H](C(=O)NC(C)(C)C(=O)N[C@@H](Cc1c[nH]c2ccccc12)C(=O)N[C@@H](CC(C)C)C(=O)N[C@@H](CCC(=O)O)C(=O)N[C@@H](CC(=O)O)C(=O)N[C@@H](CCC(=O)O)C(=O)N1CCC[C@H]1C(=O)N[C@@H](CO)C(=O)N[C@@H](CO)C(=O)NCC(=O)N[C@@H](C)C(=O)N1CCC[C@H]1C(=O)N1CCC[C@H]1C(=O)N1CCC[C@H]1C(=O)N[C@@H](CO)C(=O)O)C(C)C [Compound A32] (H-YTHGTFTSDYSKWLD[Aib]KRAQEFV[Aib]WLEDEPSSGAPPPS-OH; N-terminus assumed) | > 1 nM
CC(C)C[C@H](NC(=O)[C@H](Cc1ccc(O)cc1)NC(=O)[C@H](CCCCN)NC(=O)[C@H](CO)NC(=O)[C@H](Cc1ccc(O)cc1)NC(=O)[C@H](CC(=O)O)NC(=O)[C@H](CO)NC(=O)[C@@H](NC(=O)[C@H](Cc1ccccc1)NC(=O)[C@@H](NC(=O)CNC(=O)[C@H](Cc1c[nH]cn1)NC(=O)[C@H](CO)NC(=O)[C@@H](N)Cc1ccc(O)cc1)[C@@H](C)O)[C@@H](C)O)C(=O)N[C@@H](CC(=O)O)C(=O)N[C@@H](CO)C(=O)N[C@@H](C)C(=O)N[C@@H](CCCNC(=N)N)C(=O)N[C@@H](C)C(=O)N[C@@H](CCC(N)=O)C(=O)N[C@@H](CCC(=O)O)C(=O)N[C@@H](Cc1ccccc1)C(=O)N[C@H](C(=O)N[C@@H](CCCCN)C(=O)N[C@@H](Cc1c[nH]c2ccccc12)C(=O)N[C@@H](CC(C)C)C(=O)N[C@@H](CCC(=O)O)C(=O)N[C@@H](CC(=O)O)C(=O)N[C@@H](CCC(=O)O)C(=O)N1CCC[C@H]1C(=O)N[C@@H](CO)C(=O)N[C@@H](CO)C(=O)NCC(=O)N[C@@H](C)C(=O)N1CCC[C@H]1C(=O)N1CCC[C@H]1C(=O)N1CCC[C@H]1C(=O)N[C@@H](CO)C(=O)O)C(C)C [Compound A37] (H-YSHGTFTSDYSKYLDSARAQEFVKWLEDEPSSGAPPPS-OH; N-terminus assumed) | > 1 nM
